From patent US10383831B2, “2,4,6-trialkoxystryl aryl sulfones, sulfonamides and carboxamides, and methods of preparation and use” (Temple University—Of The Commonwealth System Of Higher …, priority 2015, dated 2019)

Columns and labels:
Format in all cases: cell-based
[1] = system: CEM; test: Cytotoxicity assay (viable cell count, trypan blue), CEM; settings: Homo sapiens, CCRF-CEM, T-Cell Lymphoma, 96 hours continuous treatment
Experimental: (§1) Cells of the cell lines listed in Table 18 (1×10^5) were plated into 6-well dishes. Twenty-four hours later, the compound of Example 1, i.e., (Z)-ethyl 3-((2-methoxy-5-(((E)-2,4,6-trimethoxystyrylsulfonyl)methyl) phenyl)amino)acrylate, or the compound of Comparative Example 1, i.e., sodium (E)-2-(5-((2,4,6-trimethoxystyrylsulfonyl)methyl)-2-methoxyphenylamino) acetate (rigosertib) was added at different concentrations over a 4 log dilution (0.001 to 10 μM). The total number of viable cells was determined after 96 hours of continuous treatment by staining with trypan blue and counting the number of non-staining cells (viable) remaining in each well using a hemacytometer. The percentage of viable cells remaining was calculated as follows: # viable cells (compound treated)/# viable cells (DMSO treated)*100. The GI50 (the concentration of drug resulting in 50% net loss of growth inhibition) was determined.

[2] = system: UM-UC-3; test: Cytotoxicity assay (viable cell count, trypan blue), UM-UC-3; settings: Homo sapiens, UMUC3; UM-UC-3, Bladder; 96 hours continuous treatment
Experimental: as §1

[3] = system: 2008; test: Cytotoxicity assay (viable cell count, trypan blue), 2008; settings: 2008, Ovarian; 96 hours continuous treatment
Experimental: as §1

[4] = system: HCT-15; test: Cytotoxicity assay (viable cell count, trypan blue), HCT-15; settings: Homo sapiens; HCT-15, Colo-Rectal; 96 hours continuous treatment
Experimental: as §1

[5] = system: MOLT-4; test: Cytotoxicity assay (viable cell count, trypan blue), MOLT-4; settings: Homo sapiens; MOLT-4, T-Cell Lymphoma; 96 hours continuous treatment
Experimental: as §1

[6] = system: GRANTA-519; test: Cytotoxicity assay (viable cell count, trypan blue), GRANTA-519; settings: Homo sapiens; GRANTA-519, Mantle Cell Lymphoma; 96 hours continuous treatment
Experimental: as §1

[7] = system: K562; test: Cytotoxicity assay (viable cell count, trypan blue), K562; settings: Homo sapiens; K562, Chronic Myelogenous Leukemia; 96 hours continuous treatment
Experimental: as §1

[8] = system: HCT-116; test: Cytotoxicity assay (viable cell count, trypan blue), HCT-116; settings: Homo sapiens; HCT-116, Colo-Rectal; 96 hours continuous treatment
Experimental: as §1

[9] = system: WM1617; test: Cytotoxicity assay (viable cell count, trypan blue), WM1617; settings: WM1617, Melanoma; 96 hours continuous treatment
Experimental: as §1

[10] = system: RS4; 11; test: Cytotoxicity assay (viable cell count, trypan blue), RS4; 11; settings: Homo sapiens, 11, ALL-B-Cell Precursor, 96 hours continuous treatment
Experimental: as §1

[11] = system: N417; test: Cytotoxicity assay (viable cell count, trypan blue), N417; settings: N417, Small Cell Lung Carcinoma; 96 hours continuous treatment
Experimental: as §1

[12] = system: 5367; test: Cytotoxicity assay (viable cell count, trypan blue), 5367; settings: 5367, Bladder; 96 hours continuous treatment
Experimental: as §1

[13] = system: PC-3; test: Cytotoxicity assay (viable cell count, trypan blue), PC-3; settings: Homo sapiens; PC-3, Prostate; 96 hours continuous treatment
Experimental: as §1

[14] = system: DU145 (prostate cancer); test: Cytotoxicity assay, DU145 tumor cells; settings: Homo sapiens, DU-145, 96 hours treatment
Experimental: (§2) The effect of the compounds of the invention on tumor cells was determined by the assay described by Latham et al., Oncogene 12:827-837 (1996). Tumor cells K562 (chronic myelogenous leukaemia) or DU145 (prostate cancer) were plated in 12-well dishes at a cell density of 2.5×10^4 cells well. The plated cells were treated 24 hours later with a compound of the invention dissolved in DMSO at multiple concentrations ranging from 0.001 to 10 μM. The plates were examined 96 hours later under an inverted microscope, Olympus CK-2 using a 10× objective, and compound activity was noted by physical observation. When necessary, the total number of viable cells was determined by trypsinizing the wells and counting the number of viable cells, as determined by trypan blue exclusion, using a hemacytometer.

[15] = system: DU145; test: Cytotoxicity assay (viable cell count, trypan blue), DU145; settings: Homo sapiens, DU-145; DU145, Prostate; 96 hours continuous treatment
Experimental: as §1

[16] = system: A549; test: Cytotoxicity assay (viable cell count, trypan blue), A549; settings: Homo sapiens; A549, Non-Small Cell Lung Carcinoma; 96 hours continuous treatment
Experimental: as §1

[17] = system: Z1385; test: Cytotoxicity assay (viable cell count, trypan blue), Z1385; settings: Z1385, Mantle Cell Lymphoma; 96 hours continuous treatment
Experimental: as §1

[18] = system: T-24; test: Cytotoxicity assay (viable cell count, trypan blue), T-24; settings: Homo sapiens; T-24, Bladder; 96 hours continuous treatment
Experimental: as §1

[19] = system: tumor cell lines; test: Cytotoxicity assay, comparison across the cell lines listed in Table 18; settings: across the cell lines of Table 18; against some tumor types as much as 10-fold or even 100-fold
Experimental: as §1

[20] = system: HT-29; test: Cytotoxicity assay (viable cell count, trypan blue), HT-29; settings: Homo sapiens; HT-29, Colo-Rectal; 96 hours continuous treatment
Experimental: as §1

[21] = system: MIA-PaCa-2; test: Cytotoxicity assay (viable cell count, trypan blue), MIA-PaCa-2; settings: Homo sapiens; MIA-PaCa-2, Pancreatic; 96 hours continuous treatment
Experimental: as §1

[22] = system: MDA-MB-231; test: Cytotoxicity assay (viable cell count, trypan blue), MDA-MB-231; settings: Homo sapiens; MDA-MB-231, Breast; 96 hours continuous treatment
Experimental: as §1

[23] = system: H1299; test: Cytotoxicity assay (viable cell count, trypan blue), H1299; settings: Homo sapiens, NCI-H1299; H1299, Non-Small Cell Lung Carcinoma; 96 hours continuous treatment
Experimental: as §1

[24] = system: Caov-3; test: Cytotoxicity assay (viable cell count, trypan blue), Caov-3; settings: Homo sapiens; Caov-3, Ovarian; 96 hours continuous treatment
Experimental: as §1

[25] = system: DAUDI; test: Cytotoxicity assay (viable cell count, trypan blue), DAUDI; settings: Homo sapiens, B-Cell Lymphoma, 96 hours continuous treatment
Experimental: as §1

[26] = system: K562 (chronic myelogenous leukaemia); test: Cytotoxicity assay, K562 tumor cells; settings: Homo sapiens, 96 hours treatment
Experimental: as §2

Structure (SMILES): CCOC(=O)/C=C\Nc1cc(CS(=O)(=O)/C=C/c2c(OC)cc(OC)cc2OC)ccc1OC [Ex. 1, (Z)-ethyl 3-((2-methoxy-5-(((E)-2,4,6-trimethoxystyrylsulfonyl)methyl)phenyl)amino) acrylate]
- GI50 [1]: 7.5 nM
- GI50 [2]: 3 nM
- GI50 [3]: 6 nM
- GI50 [4]: 7.5 nM
- GI50 [5]: 7.5 nM
- GI50 [6]: 6 nM
- GI50 [7]: 3 nM
- GI50 [8]: 7.5 nM
- GI50 [9]: 3 nM
- GI50 [10]: 7.5 nM
- GI50 [11]: 8 nM
- GI50 [12]: 3 nM
- GI50 [13]: 7.5 nM
- IC50 [14]: 0.006 µM
- GI50 [15]: 10 nM
- GI50 [16]: 7.5 nM
- GI50 [17]: 6 nM
- GI50 [18]: 4 nM
- fold more active than the Comparative Example 1 compound [19]: at least 4 fold
- GI50 [20]: 15 nM
- GI50 [21]: 5 nM
- GI50 [22]: 7.5 nM
- GI50 [23]: 4 nM
- GI50 [24]: 4 nM
- GI50 [25]: 7.5 nM
- IC50 [26]: 0.002 µM
